Like-named read-outs stand apart in the source and are kept apart here. Where no end group is shown, it is not given here.
Key:
S. aureus Mu50 [1] = format: cell-based, Staphylococcus aureus MRSA; settings: for MIC S. aureus Mu50: Mu50, 2 h
Experimental: To assess the stability of the peptides in physiological conditions, the peptides were incubated with E. coli K88 and S. aureus Mu50 in the presence of salts (150 mM NaCl, 4.5 mM KCl, 6 µM NH4Cl, 8 µM ZnCl2, 1 mM MgCl2, 4 µM FeCl3, and 2.5 µM CaCl2) in accordance with a previously reported protocol. To determine the thermal stability of the peptides, the peptides were pretreated at 100°C for 30 min, 60 min, and 90 min and cooled on ice for 10 min. The effect of acid and base on the antimicrobial activity was measured by treating the peptides for 2 h at pH of 2, 4, 10, and 12 in 10 mM sodium phosphate buffer adjusted with HCl or NaOH.

Gram-positive bacteria = assay: Geometric mean MIC and therapeutic index, Gram-positive; format: cell-based; settings: geometric mean of the peptide MICs against Gram-positive strains
Experimental: (§1) The antibacterial activity was evaluated using a standard MIC and MBC assay according to the National Committee for Clinical Laboratory Standards (NCCLS). MIC, MBC assay, and time-kill curves for the optimal peptide are provided in the Supplementary Materials.
(§2) Antimicrobial Activity Assays. The antibacterial activity of the peptides was determined using a method designed from the National Committee for Clinical Laboratory Standards (NCCLS) in the United States. All the strains used in the experiment are preserved in the laboratory. Briefly, log phase bacterial cells were diluted in MHB to a final concentration of 0.5-1x10^5 CFU/mL. Subsequently, 50μL of different concentrations of polypeptides were incubated with 50 μL of bacterial solution in sterile 96-well plates. In the minimum inhibitory concentration (MIC) assay, the plate was incubated at 37°C for 24 h, and the minimum inhibitory concentration (MIC) was determined by the absorbance at 492 nm of the microplate reader, and the minimum inhibitory concentration (MIC) inhibited 95% of bacteria grow. Determination of minimum bactericidal concentration: the plate was incubated at 37°C for 4 hours, 50 μL of the mixture was taken out of each well, diluted with an appropriate amount of PBS, smeared on the agar plate, and cultured overnight. Colonies were counted and the initial CFU/well was retrospectively calculated the following day. The lowest concentration of peptide that kills 99.9% of bacterial cells is the minimum bactericidal concentration (µM), Each test was replicated at least 3 times.

[2] = system: A. baumannii ATCC19606 biofilm; assay: Anti-biofilm assay (crystal violet); format: cell-based, Acinetobacter baumannii
Experimental: (§3) The anti-biofilm activity of DiPGLa-H was evaluated using a crystal violet staining method. Briefly, 100 µL of bacterial suspension at 1 × 10^6 CFU/mL was incubated with DiPGLa-H (0–64 µM) for 48 h. The biofilm formed was stained with 1% crystal violet, and the absorbance was measured at 595 nm. The biofilm formation and mature biofilm removal assays were conducted. For biofilm formation, a bacterial suspension was incubated with DiPGLa-H, and biofilm content was quantified. To assess mature biofilm removal, pre-formed biofilms were treated with DiPGLa-H for 24 h, followed by quantification. Detailed Protocol in Supplementary Materials.
(§4) To test the ability of DiPGLa-H to […] on the test bacteria, a single colony was inoculated in MHB medium and incubated overnight at 37 °C and 180 r/min, and 1% of the bacterial suspension was taken and continued to be amplified and incubated for 2 h. […] The biofilm content was analyzed by measuring the absorbance value at 595 nm, and anhydrous ethanol was used as a blank control. […]

[3] = system: P. aeruginosa ATCC27853 biofilm; assay: Anti-biofilm assay (crystal violet); format: cell-based, Pseudomonas aeruginosa
Experimental: as §3, §4

E. coli K88 biofilm = assay: Anti-biofilm assay (crystal violet); format: cell-based, Escherichia coli
Experimental: as §3, §4

S. aureus Mu50 [4] = assay: Time-kill (bactericidal) curve; format: cell-based, Staphylococcus aureus MRSA; settings: four times MIC, TSB, 37°C
Experimental: as §1
The bactericidal curve of the optimal peptide was further determined. […] Each test was replicated at least 3 times.

S. aureus Mu50 [5] = format: cell-based, Staphylococcus aureus MRSA
Experimental: as §1, §2

S. aureus = settings: one range printed for E. coli and S. aureus; cited from earlier work
Experimental: (§5) PGLa, an amphibian 21-residue cationic AMP, with a net charge of +4, was found in the skin of the toad Xenopus laevis ([6]). The minimum inhibitory concentration (MIC) of PGLa against Escherichia coli 25922 and S. aureus 25923 were 10–50 μg/mL and 50–100 μg/mL, respectively ([6]). […] The rep ...

E. coli = settings: one range printed for E. coli and S. aureus; cited from earlier work
Experimental: as §5

[6] = 1×10^6 CFU/mL, DiPGLa-H 0-64 µM, 48 h, crystal violet, 595 nm
[7] = pre-formed biofilm treated with DiPGLa-H 0-64 µM for 24 h

KIAKVALKALKIAKVALKAL-NH2 (C-terminus assumed) [DiPGLa-H]
MIC S. aureus Mu50 (S. aureus Mu50 [1]; pH 2): >32 µM | MIC S. aureus Mu50 (S. aureus Mu50 [1]; pH 4): >32 µM | MIC S. aureus Mu50 (S. aureus Mu50 [1]; pH 10): 32 µM | MIC S. aureus Mu50 (S. aureus Mu50 [1]; pH 12): 32 µM | increase in MIC after high temperature and pH treatments, S. aureus Mu50 (S. aureus Mu50 [1]; heat 100°C and pH 2-12 treatments): ≥ 4 fold | increase in MIC values by cations, S. aureus Mu50 (S. aureus Mu50 [1]; salts of Table S2): more than fourfold increase | GMMIC Gram-positive (Gram-positive bacteria): 5.66 µM | concentration for effective inhibition of biofilm formation [2, 6]: above 4 µM | concentration effectively eradicating biofilms [2, 7]: above 16 µM | inhibition of biofilm formation [3, 6]: inhibition at higher concentrations | biofilm elimination capacity ([3]; pre-formed biofilm treated with DiPGLa-H for 24 h, similar concentrations (above 16 µM)): less pronounced | concentration for effective inhibition of biofilm formation (E. coli K88 biofilm; [6]): above 4 µM | concentration effectively eradicating biofilms (E. coli K88 biofilm; [7]): above 16 µM | time to complete eradication of S. aureus Mu50 (S. aureus Mu50 [4]): 6 h | MBC S. aureus Mu50 (S. aureus Mu50 [5]; Mu50, 4 h): 16 µM | MIC S. aureus Mu50 (S. aureus Mu50 [5]; Mu50, 24 h): 8 µM | MIC S. aureus Mu50 (S. aureus Mu50 [5]; lowest concentration inhibiting 95% of growth, MHB, 0.5-1x10^5 CFU/mL, 37°C 24 h, absorbance 492 nm, three independent experiments): 8 µM | MIC S. aureus (S. aureus): 0.75 to 1.5 µM | MIC E. coli (E. coli): 0.75 to 1.5 µM
